Experimental data: patent publication US12226425B2, “Inhibitors of ARG1 and/or ARG2” (Arcus Biosciences, Inc., priority 2018, dated 2025)

Molecular target: T1, recombinant human ARG1 (Homo sapiens, UniProt P05089)
T1 sequence (P05089 1-322): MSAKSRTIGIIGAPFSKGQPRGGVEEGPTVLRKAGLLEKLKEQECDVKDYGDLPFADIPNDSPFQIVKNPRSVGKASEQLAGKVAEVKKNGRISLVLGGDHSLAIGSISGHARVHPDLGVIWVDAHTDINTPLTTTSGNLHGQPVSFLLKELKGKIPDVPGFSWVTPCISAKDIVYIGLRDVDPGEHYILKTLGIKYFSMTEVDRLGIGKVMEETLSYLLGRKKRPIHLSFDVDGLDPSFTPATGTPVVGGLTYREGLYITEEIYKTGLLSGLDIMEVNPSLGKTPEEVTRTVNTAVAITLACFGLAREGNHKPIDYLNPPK
Experiment: Arginase coupled enzymatic assay using recombinant human ARG1
Assay type: biochemical
Conditions: 2 nM ARG1, 0.8 mM L-Arginine, 10 mM sodium phosphate pH 7.4, 0.1 mM MnCl2, 37° C., absorption at 570 nm; read-out: hARG1 potency (IC50)
Method: Purified recombinant human ARG1 and ARG2 were prepared in 50 mM Bicine, pH 8.5, 100 μM MnCl2, 20% glycerol and 1mM DTT at a final stock concentration of 14.4 μM and 7.56 μM respectively. 2.5 nM of either ARG1 or ARG2 were incubated with varying concentrations of compounds in 10 mM sodium phosphate, pH 7.4, 0.1 mM MnCl2 and 2.5% DMSO in a total volume of 40 μl in a 384-well microplate (Corning™ #3640) at 37° C. for 1 h. The arginase enzymatic reaction was initiated by addition of 10 μl of 4 mM L-Arginine pre-incubated in 10 mM sodium phosphate, pH 7.4, and 0.1 mM MnCl2 at 37° C. into the enzyme and compound mixture, giving the final reaction conditions: 2 nM of ARG1 or ARG2 and 0.8 mM of L-Arginine in 10 mM sodium phosphate, pH 7.4, 0.1 mM MnCl2 and 2% DMSO with varying concentrations of compounds. Following 2 h incubation at 37° C., the arginase enzymatic reaction was stopped by transfer of 10 μl of reaction into 10 μl of detection mix (204 μM Amino-2-Borono-6-Hexanoic Acid, 0.25 μl Arginase Enzyme mix, 0.25 μl Arginase Developer, 0.25 μl Arginase Converter Enzyme in Arginase Assay Buffer from Arginase Activity Colorimetric Assay Kit, BioVision Inc. #K755-100) in a transparent 384-well microplate (Greiner #781801). The plate was immediately put into a plate reader (Synergy™ Neo2 Multi-Mode Microplate Reader) to monitor absorption at 570 nm at 37° C. Absorption values at 12˜20 min were used to calculate compound potency. The value of the DMSO blank (MIN inhibition=100% activity) was used as a negative control. The positive control was established by adding 8 μl of enzyme and DMSO mix into 10 μl of detection mix followed by addition of 2 μl of L-Arginine (MAX inhibition=0% activity). To calculate the percent activity, Equation 1 was used. Abs570nm is the value at a given compound concentration:
A counter-screen was performed to identify any inhibition of the coupling enzymes by the test compounds. 10 μl of 0.26 mM of urea with varying concentrations of compounds in 10 mM sodium phosphate, pH 7.4, 0.1 mM MnCl2 and 2% DMSO were added into 10 μl of detection mix in place of the arginase enzymatic reaction mix. Absorption was monitored at 570 nm as described above. The values of a no substrate blank (without urea; MAX inhibition=0% activity) and a DMSO blank (MIN inhibition=100% activity) were used as positive and negative controls respectively. […] Inactivity in the counter-screen was used to confirm that results accurately reflected IC50 values for ARG1 and ARG2.

SMILES	IC50 [nM]
N#Cc1cccc2c1C[C@H](CCCB(O)O)[C@]2(N)C(=O)O	> 1000
NC1CN(c2ccc3c(c2)C[C@H](CCCB(O)O)[C@]3(N)C(=O)O)C1	> 1000
NCCc1cc2c(cc1Cl)C[C@H](CCCB(O)O)[C@]2(N)C(=O)O	< 100
CN[C@@]1(C(=O)O)c2cc(CN3CCC[C@H]3C(=O)O)c(F)cc2C[C@@H]1CCCB(O)O	100 to 1000
CN[C@@]1(C(=O)O)c2cc(OC)c(CN)cc2C[C@@H]1CCCB(O)O	< 100
CN[C@@]1(C(=O)O)c2cccc(OC)c2C[C@@H]1CCCB(O)O	> 1000
CN[C@@]1(C(=O)O)c2cc(-c3ccc(F)cc3CN)c(F)cc2C[C@@H]1CCCB(O)O	< 100
CN[C@@]1(C(=O)O)c2cc([C@@H]3CCCN3)c(F)cc2C[C@@H]1CCCB(O)O	< 100
N[C@@]1(C(=O)O)c2cccc(CO)c2C[C@@H]1CCCB(O)O	> 1000
Cc1ccc2c(c1)C[C@H](CCCB(O)O)[C@]2(N)C(=O)O	> 1000
CN[C@@]1(C(=O)O)c2cc(-c3ccccn3)c(F)cc2C[C@@H]1CCCB(O)O	100 to 1000
CN[C@@]1(C(=O)O)c2cc(C(C)(C)C(C)(C)N)c(F)cc2C[C@@H]1CCCB(O)O	< 100
N[C@@]1(C(=O)O)c2ccc(Cl)cc2C[C@@H]1CCCB(O)O	100 to 1000
CN[C@@]1(C(=O)O)c2cc([C@H]3CCCN3)c(F)cc2C[C@@H]1CCCB(O)O	< 100
CN[C@@]1(C(=O)O)c2cc(Cn3ccnc3N)c(Cl)cc2C[C@@H]1CCCB(O)O	< 100
CN[C@@]1(C(=O)O)c2c(F)cc(CN)cc2C[C@@H]1CCCB(O)O	100 to 1000
N[C@@]1(C(=O)O)c2cccc(Br)c2C[C@@H]1CCCB(O)O	> 1000
CN[C@@]1(C(=O)O)c2cc(-c3ccccc3CN)c(F)cc2C[C@@H]1CCCB(O)O	< 100
CN[C@@]1(C(=O)O)c2cc(-c3cccc(CN)c3)c(Cl)cc2C[C@@H]1CCCB(O)O	< 100
COc1ccc2c(c1)[C@@](N)(C(=O)O)[C@@H](CCCB(O)O)C2	100 to 1000
CN[C@@]1(C(=O)O)c2cc([C@@H](N)C3CC3)c(Cl)cc2C[C@@H]1CCCB(O)O	< 100
CN[C@@]1(C(=O)O)c2cc(CN3CCCC3(C)C)c(F)cc2C[C@@H]1CCCB(O)O	< 100

The next lines start with the values.

IC50 [nM]	SMILES
< 100	CN[C@@]1(C(=O)O)c2cc(CN)ccc2C[C@@H]1CCCB(O)O
< 100	CN[C@@]1(C(=O)O)c2cc([C@H](N)C(C)C)c(Cl)cc2C[C@@H]1CCCB(O)O
< 100	CN[C@@]1(C(=O)O)c2cc(CN)c(F)cc2C[C@@H]1CCCB(O)O
< 100	CN[C@@]1(C(=O)O)c2cc([C@@H](N)C(C)C)c(F)cc2C[C@@H]1CCCB(O)O
< 100	CN[C@@]1(C(=O)O)c2cc([C@@H](N)C(C)C)c(Cl)cc2C[C@@H]1CCCB(O)O
< 100	CN[C@@]1(C(=O)O)c2cc(CN3CCC(c4ccccc4)CC3)c(F)cc2C[C@@H]1CCCB(O)O
< 100	CN[C@@]1(C(=O)O)c2cc(CCCN)c(F)cc2C[C@@H]1CCCB(O)O
> 1000	Cc1ccc2c(c1)[C@@](N)(C(=O)O)[C@@H](CCCB(O)O)C2
< 100	CN[C@@]1(C(=O)O)c2cc(CN3CCCCC3(C)C)c(F)cc2C[C@@H]1CCCB(O)O
< 100	CN[C@@]1(C(=O)O)c2cc(C3(C(C)(C)N)CCC3)c(F)cc2C[C@@H]1CCCB(O)O
< 100	CN[C@@]1(C(=O)O)c2cc(C3(CN)CCC3)c(F)cc2C[C@@H]1CCCB(O)O
< 100	CN[C@@]1(C(=O)O)c2cc([C@@H](C)N)c(Cl)cc2C[C@@H]1CCCB(O)O
100 to 1000	CN[C@@]1(C(=O)O)c2cc(Nc3ccccn3)c(F)cc2C[C@@H]1CCCB(O)O
< 100	CN[C@@]1(C(=O)O)c2cc(CN)c(Cl)cc2C[C@@H]1CCCB(O)O
100 to 1000	N[C@@]1(C(=O)O)c2ccccc2C[C@@H]1CCCB(O)O
< 100	CN[C@@]1(C(=O)O)c2cc(CN3CC[C@@H](F)C3)c(F)cc2C[C@@H]1CCCB(O)O
< 100	CC(N)c1ccc2c(c1)[C@@](N)(C(=O)O)[C@@H](CCCB(O)O)C2 (stereo partly drawn)
